These results are taken from paper PMC3411647 (PLoS ONE, 2012).

The structures appear in SMILES notation.

In one experiment the target is T1, hH3R (Homo sapiens, UniProt Q9Y5N1).
T1 construct: gene HRH3; recombinant, cDNA from human thalamus RNA (AF140538), stably expressed in HEK-293 cells; vectors pCMV-Flag and pEGFP-N1
Kind of experiment: Saturation radioligand binding (Scatchard) of [3H]N-α-methylhistamine (0.03-50 nM) to membranes of HEK-293 cells expressing hH3R, 50 mM Tris-HCl pH 7.4, room temperature. As to the method:
(§1) HEK-293 cells stably expressing H3R were harvested and resuspended in ice-cold 50 mM Tris-HCl (pH 7.4) containing a complete protease inhibitor cocktail tablet and mixed by inverting. The cell pellet was homogenized with a Polytron PT 1200 set at 4000 rpm and centrifuged at 1,000 g for 5 min. The supernatant was then centrifuged twice at 50,000 g for 30 min at 4°C. Finally, the resulting pellet was gently suspended in 50 mM Tris-HCl (pH 7.4) buffer and the membrane concentration was determined using Bio-Rad protein assays.
The membranes (50 µg of protein) were incubated with [^3H] N-α-methylhistamine at various concentrations (from 0.03 nM to 50 nM) for saturation binding assays. For competitive binding assays, the membranes (50 µg of protein) were incubated with 10 nM [^3H] N-α-methylhistamine for recombinant hH3R or 2nM [^3H] N-α-methylhistamine for rat brain H3R in the presence of various compound concentrations in the buffer (50 mM Tris–HCl, pH 7.4). The reaction mixtures were incubated for 90–120 min at room temperature to achieve binding equilibrium. Following three washes, the membrane-bound radioactivity was measured on a Topcount (PerkinElmer) at 20°C. […] IC50 values were converted to Ki values using the Cheng-Prusoff equation. […] All data were analyzed by nonline arregression using GraphPad Prism version 4.0 software.

For the next experiment, the target named is T2, rat brain H3R (Rattus norvegicus, UniProt Q9QYN8).
T2 construct: from tissue; host or cells: rat cerebral cortex membranes
The experiment in a line: Competitive/saturation binding with [3H]N-α-methylhistamine, rat cerebral cortex membranes. The conditions noted are these: saturation binding, rat cerebral cortex. As to the method:
(§2) Figure 4 Competition binding experiments with [^3H]-N-α-methylhistamine. […] The presented data are the means ±SE of values from a single experiment performed in duplicate and are representative of three to six separate experiments.
(§3) The membranes (50 µg of protein) were incubated with [^3H] N-α-methylhistamine at various concentrations (from 0.03 nM to 50 nM) for saturation binding assays. For competitive binding assays, the membranes (50 µg of protein) were incubated with 10 nM [^3H] N-α-methylhistamine for recombinant hH3R or 2nM [^3H] N-α-methylhistamine for rat brain H3R in the presence of various compound concentrations in the buffer (50 mM Tris–HCl, pH 7.4). […] Following three washes, the membrane-bound radioactivity was measured on a Topcount (PerkinElmer) at 20°C. […] IC50 values were converted to Ki values using the Cheng-Prusoff equation. Each experiment was performed in duplicate and repeated three to six times. All data were analyzed by nonline arregression using GraphPad Prism version 4.0 software.

The target of experiment [1] is T3, H3R (Homo sapiens, UniProt Q9Y5N1).
T3 construct: expressed in transfected cells
Kind of experiment: H3R internalization, cell-surface ELISA in HEK-293 cells stably transfected with Flag-H3R. Format: cell-based. Conditions: 100 µM, 45 min at 37°C. As to the method:
ELISA data are expressed as the percentage of receptors detected on the surface of agonist-untreated cells expressing H3R. Error bars represent the SEM for four replicates.
The cell surface expression of H3R was quantitatively assessed by ELISA and performed as described previously. Briefly, HEK-293 cells stably transfected with the pCMV-H3R construct were seeded in 48-well dishes coated with poly-L-lysine. […] Medium was aspirated and the cells were washed once with Tris-buffered saline (TBS). […] Cells were then incubated for 1 h with an alkaline phosphatase-conjugated monoclonal antibody directed against the Flag epitope and diluted 1∶1,000. Cells were washed 3 times, and antibody binding was visualized by adding 0.25 mL of an alkaline phosphatase substrate (Bio-Rad). Development was stopped by adding 0.1 mL of the substrate to a 96-well microtiter plate containing 0.1 mL of 0.4 M NaOH.
On the technique in general: An ELISA detects its analyte on a solid surface through an enzyme-linked reagent.

Experiment [2] addresses T4, H3R (Cavia porcellus, UniProt Q9JI35).
T4 construct: from tissue; host or cells: guinea-pig ileum segments
Kind of experiment: Guinea-pig ileum bioassay, inhibition of electrically induced twitch. Here is the method: Each point is the mean ± s.e.m. of three to six separate experiments.
The procedure used was as described previously. Adult male guinea pigs (300–500 g) were killed by cervical dislocation. The ileum was removed at a point 20 cm from the caecum and flushed with and placed in modified K–H buffer of following composition: 118 mM NaCl, 5.9 mM KCl, 1.2 mM CaCl2, 1.2 mM MgSO4, 1 mM Na2HPO4, 25 mM NaHCO3 and 10 mM D-glucose. Ileum segments (2.5–3 cm) were suspended in 20 ml organ baths containing K–H buffer maintained at 37°C and gassed with 95% O2/5% CO2. Contractile activity under stimulation (rectangular pulses of 15 V, 0.5 ms, and 0.1 Hz) was recorded using isometric transducers (Grass FTO3). […] Mepyramine ([…]) and famotidine ([…]) (Sigma-Aldrich, St. Louis, MO) were added to the K–H buffer to block postsynaptic H1 and presynaptic H2 receptors, respectively.

The target in another experiment is T5, H3R-EGFP (Homo sapiens, UniProt Q9Y5N1).
T5 construct: expressed in transfected cells
Kind of experiment: Recycling of internalized H3R-EGFP to the cell surface, confocal microscopy. Type of experiment: cell-based. The conditions noted are these: 20 µM ZEL-H16 or 500 µM histamine for 30 min, cycloheximide 100 µg/ml. As to the method: Figure 6 Localization of internalized H3R-EGFP stably expressed in HEK-293 cells and recycling of internalized H3R to the cell surface. […] All pictures shown are representative of at least three independent experiments.
HEK-293 cells stably expressing H3R-EGFP were seeded in covered glass-bottom 6-well plates. […] After fixing the cells with 4% paraformaldehyde for 10 min, cells were mounted in mounting reagent (DTT/PBS/glycerol). Confocal images were taken on a Zeiss LSM 510 microscope with an attached Axiovert 200 microscope and LSM5 computer system. Images were collected using QED camera software and processed with Adobe Photoshop.

Experiment [3] concerns the target T6, human histamine H3 receptor (Homo sapiens, UniProt Q9Y5N1).
T6 construct: expressed in transfected cells
The experiment in a line: Competitive/saturation binding with [3H]N-α-methylhistamine, H3R/HEK-293 cell membranes. Here is the method:
as §2, §1, §3

The target of the next experiment is histamine H4 receptor. Conditions: cited from earlier work.
Experiment [4] concerns the target T3, H3R. The experiment in a line: ERK1/2 phosphorylation (Western blot) in HEK-293 cells stably expressing H3R. Type of experiment: cell-based. Here is the method:
Figure 7 Phosphorylation of ERK1/2 induced by ZEL-H16 in H3R-expressing HEK-293 cells. […] Signals were quantified by densitometric image analysis and p-ERK was normalized to a loading control (ERK). […] Concentration -dependent phosphorylation signals were quantified by densitometric analysis and p-ERK levels were normalized to total ERK levels. […] C, The phosphorylation of ERK1/2 induced by ZEL-H16 could be entirely abolished by co-incubation with H3R antagonist thioperamide (***p<0.001). Data represent the mean ±SE of three independent experiments.
HEK-293 cells stably expressing human H3R were grown in a 6-well plate and were serum starved 2 h in serum-free culture medium prior to stimulation. Cells were stimulated with the indicated H3R ligands at the designated concentrations. Incubations were stopped at the indicated times by removing the stimulation medium by aspiration. The cells were washed in ice-cold PBS and subsequently lysed in 100 µl of lysis buffer [20 mM HEPES (pH 7.5), 10 mM EDTA, 150 mM NaCl, 1% Triton X-100, and one tablet of complete protease inhibitor (Roche, Indianapolis, IN) per 50 mL] at 4°C on a rocker for 30 min. The lysates were centrifuged and separated by sodium dodecyl sulfate-polyacrylamide (12%) gel electrophoresis (SDS-PAGE) and blotted onto polyvinylidene difluoride membranes. Membranes were blocked for 1 h at room temperature in TBST (10 mmol/L Tris, 150 mmol/L NaCl, 0.1% Tween-20, pH 8.0) buffer containing 5% (v/w) skim milk. Membranes were probed overnight with primary antibodies against p-ERK1/2 (1∶1,000; Cell Signaling, Danvers, MA) in TBST containing 5% (v/w) BSA, and then probed with horseradish peroxidase-labeled secondary antibody (1∶5,000) for 1 h at room temperature in TBST containing 5% (v/w) milk powder. Immunoreactivity was detected by ECL assays. The blots were stripped and reprobed using antibodies against total ERK1/2 (1∶2,000) (Cell Signaling, Danvers, MA) as a control.
(In general: Immunoblotting shows a protein as a band on a membrane.)

The next experiment has as its target T7, mouse H3R (Mus musculus, UniProt P58406).
T7 construct: endogenous in cells; host or cells: primary cortical neurons of neonatal ICR mice
The experiment in a line: ERK1/2 phosphorylation in neonatal mouse cortical neuron cultures. Type of experiment: cell-based. As to the method:
Figure 8 Phosphorylation of ERK1/2 induced by ZEL-H16 in mouse cortical neurons. A, Time-dependent phosphorylation of ERK1/2 induced by 5 µM ZEL-H16 in neonatal mouse cortical neuron cultures. B, The phosphorylation of ERK1/2 induced by 50 µM ZEL-H16 for 20 min was mostly abolished by 100 ng/mL PTX or 10 µM thioperamide. Signals were quantified by densitometric image analysis and p-ERK was normalized to a loading control (ERK). The signal at each point is expressed as the percentage of the maximal p-ERK signal induced by ZEL-H16. Data represent the mean ±SE of three independent experiments.
Neuronal cortical cultures were prepared from neonatal ICR mice. Cerebral cortices were dissociated in sterile Dulbecco’s phosphate-buffered saline (D-PBS; Sigma-Aldrich, St. Louis, MO), and the neurons were isolated in the same medium containing 0.5% trypsin at 37°C for 10 min. After centrifugation, dissociated neurons were re-suspended in neurobasal medium (NBM; Gibco, Carlsbad, CA) supplemented with 2% B-27 and 0.5 mmol/L-glutamine (Gibco, Carlsbad, CA) and then plated on 48-well plates at a density of approximately 1.3×10^6 per well. After 7 days of culture, the neurons were serum starved for approximately 3 h prior to drug treatment. […]

T3 sequence (Q9Y5N1 whole entry): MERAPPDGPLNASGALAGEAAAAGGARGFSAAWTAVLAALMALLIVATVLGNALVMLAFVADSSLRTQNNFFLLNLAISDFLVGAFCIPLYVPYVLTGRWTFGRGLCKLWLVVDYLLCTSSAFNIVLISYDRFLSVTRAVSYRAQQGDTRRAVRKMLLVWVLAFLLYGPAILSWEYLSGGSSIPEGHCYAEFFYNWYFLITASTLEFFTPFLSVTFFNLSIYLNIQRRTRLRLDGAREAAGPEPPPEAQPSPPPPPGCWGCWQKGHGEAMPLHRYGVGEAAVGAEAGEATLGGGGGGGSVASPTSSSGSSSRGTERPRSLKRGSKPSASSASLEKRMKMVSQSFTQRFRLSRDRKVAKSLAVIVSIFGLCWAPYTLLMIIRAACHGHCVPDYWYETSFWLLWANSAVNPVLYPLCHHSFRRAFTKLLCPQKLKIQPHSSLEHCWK
T4 sequence (Q9JI35 whole entry): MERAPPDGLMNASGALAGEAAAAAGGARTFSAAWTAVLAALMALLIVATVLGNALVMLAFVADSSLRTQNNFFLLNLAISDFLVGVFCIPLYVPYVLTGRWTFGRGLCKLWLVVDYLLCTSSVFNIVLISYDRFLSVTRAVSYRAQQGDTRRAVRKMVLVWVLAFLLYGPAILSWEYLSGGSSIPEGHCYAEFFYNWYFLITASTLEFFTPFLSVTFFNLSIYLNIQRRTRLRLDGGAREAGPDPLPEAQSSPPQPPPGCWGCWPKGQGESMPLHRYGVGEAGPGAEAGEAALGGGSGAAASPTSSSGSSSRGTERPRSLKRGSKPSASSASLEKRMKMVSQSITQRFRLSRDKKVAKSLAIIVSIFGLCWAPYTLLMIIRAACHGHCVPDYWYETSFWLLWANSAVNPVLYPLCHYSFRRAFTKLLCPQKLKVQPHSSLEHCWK
T1 sequence (Q9Y5N1 whole entry): as the sequence (Q9Y5N1 whole entry) above
T5 sequence (Q9Y5N1 whole entry): as above
T6 sequence (Q9Y5N1 whole entry): as above
T7 sequence (P58406 whole entry): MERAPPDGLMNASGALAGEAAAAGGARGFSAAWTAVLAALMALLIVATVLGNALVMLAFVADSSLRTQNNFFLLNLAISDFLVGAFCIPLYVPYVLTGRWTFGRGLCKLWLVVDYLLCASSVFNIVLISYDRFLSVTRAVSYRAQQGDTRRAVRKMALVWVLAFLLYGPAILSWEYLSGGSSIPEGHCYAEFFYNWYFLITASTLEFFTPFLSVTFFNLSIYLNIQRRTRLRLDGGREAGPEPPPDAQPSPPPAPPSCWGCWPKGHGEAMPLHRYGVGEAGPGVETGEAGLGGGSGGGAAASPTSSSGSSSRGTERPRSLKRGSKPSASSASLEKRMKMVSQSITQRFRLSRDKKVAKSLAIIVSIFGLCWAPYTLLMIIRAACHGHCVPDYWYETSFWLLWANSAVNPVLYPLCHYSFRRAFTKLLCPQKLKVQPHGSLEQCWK
T2 sequence (Q9QYN8 whole entry): as the sequence (P58406 whole entry) above, with A15T, T286A, G290A, H387R, V389I counted along it

A word on the Kd: it is the constant that tells how readily two partners part at equilibrium. Higher therefore signals lower affinity. At hH3R, `CNCCc1c[nH]cn1` [[^3H]N-α-methylhistamine, [3H]N-alpha-methylhistamine] came in with a Kd of 0.71 nM.

In turn, `CNCCc1cnc[nH]1` [[^3H]N-α-methylhistamine, reference compound] came in with a Kd at rat brain H3R of 0.83 nM.

Regarding `NCCc1c[nH]cn1` [histamine, reference compound], the “loss in the expression of the receptors on the cell surface (internalization)” value on H3R [1] is given as 18–20%. Further, the “efficacy of inhibition of the contractions of the guinea pig ileum” value on H3R [2] (electrically induced twitch, mepyramine and famotidine present) is reported as 54.52±0.99%. Moreover, the EC50 at H3R [2] (inhibition of electrically induced twitch, read-out: pD 2 (converted)) was 95.5 nM. At H3R-EGFP, the “time for internalized H3R to recycle to the cell surface after agonist removal” value is recorded as no more than 1 h.

The Ki is a measure of affinity in units of concentration, obtained from inhibition or displacement. A higher Ki goes with weaker binding. For `N=C(N)SCCc1c[nH]cn1` [imetit, S-[2-(4-imidazolyl)ethyl]isothiourea, reference compound], at H3R [1], the “loss in the expression of the receptors on the cell surface (internalization)” value was 18–20%. In addition, in [3], the Ki amounted to 0.9 ± 0.06 nM.

A word on the pKi: it is −log10 of the Ki, conventionally taken in molar units. With `c1nc(CC2CCNCC2)c[nH]1` [immepip, 4-(1H-imidazol-4-ylmethyl)piperidine], the pKi on histamine H4 receptor was 7.66.

As to `S=C(NC1CCCCC1)N1CCC(c2cnc[nH]2)CC1` [thioperamide], the “effect on ERK1/2 phosphorylation induced by 50 µM ZEL-H16” value on H3R [4] was “completely abolished”. In addition, at mouse H3R, the “effect on ERK phosphorylation induced by 50 µM ZEL-H16 at 20 min” value is listed as “abolish most of the stimulatory effects”.
